Source: publication PMC10675077, “Antimicrobial Properties of New Polyamines Conjugated with Oxygen-Containing Aromatic Functional Groups” (Molecules, 2023)

Assays:
[1] = Potentiometric titrations in water (protonation constants); type: physicochemical; conditions: for log β (cumulative protonation constant): calculated as log β = ∑j log KHjL; for n, average number of positive charges at pH 7.4: calculated from protonation constants
Experimental: The potentiometric titrations were carried out at 298.1 ± 0.1 K using NaCl 0.15 M as a supporting electrolyte. The experimental procedure (burette, potentiometer, cell, stirrer, microcomputer, etc.) has been fully described elsewhere. The acquisition of the EMF data was performed with the computer program PASAT [50]. The reference electrode was a Ag/AgCl electrode in a saturated KCl solution. The glass electrode was calibrated as a hydrogen-ion concentration probe via the titration of previously standardised amounts of HCl with CO2-free NaOH solutions and the equivalent point determined using the Gran method, which provides the standard potential, E^θ′, and the ionic product of water (pKw = 13.73(1)).
The computer program […] was used to calculate the protonation constants. The pH range investigated was 2.5–11.0, and the concentration of the ligands ranged from 5 × 10^−4 to 5 × 10^−[…]. The different titration curves for each system (at least two) were treated either as a single set or as separated curves without significant variations in the values of the stability constants. Finally, the sets of data were merged and treated simultaneously to give the final stability constants.

Escherichia coli JM101 = assay: MIC, microdilution in culture medium, E. coli; type: cell-based; conditions: 20 h, 37 °C, average of at least three experiments; for MIC: Escherichia coli, JM101, read-out: MIC, Bacteria, E. coli JM101
Text: (§1) The microorganisms used for the susceptibility tests were the bacteria Escherichia coli JM101 and Staphylococcus aureus BHI, and the yeast Saccharomyces cerevisiae strains BY4741 (MAT a his3Δ1 leu2Δ0 met15Δ0 ura3Δ0 (EUROSCARF)) carrying YEplac195 (from EUROSCARF) or YEPlac195-PDR5 (provided by Ayse Banu Demir, Izmir University of Economics, Turkey) plasmids.
(§2) Bacterial strains were usually maintained and grown in an LB medium (0.5% (w/v) yeast extract, 1% (w/v) bactotryptone, and 1% (w/v) NaCl) at 37 °C. For MIC (minimal inhibitory concentration) and MMC (minimal microbicidal concentration) assays, and for the determination of synergies, overnight growth was carried out in 2% (w/v) bactopeptone (BP), and then the cultures were diluted and incubated for several hours in 2% (w/v) BP for ensuring logarithmic growth. Yeast strains were grown in an SC-ura medium (0.17% (w/v) yeast nitrogen base without amino acids and ammonium sulphate, 0.2% (w/v) drop-out without uracil, 0.5% (w/v) (NH4)2SO4, and 2% (w/v) glucose) at 30 °C. Liquid cultures were incubated with shaking (200 rpm). Solid media also contained 2% (w/v) agar.
(§3) For the analysis of the antimicrobial activity, the strategies and indications of Cushnie et al. were considered. The standardised method of microdilution in a culture medium was followed to determine the MIC [55]. In bacterial strains, serial dilutions of the compounds to be tested and the control antibiotics were prepared in phosphate buffer (20 mM, pH 7.4, 0.5 mL) and were mixed with a suspension of bacterial cells in a logarithmic growth phase (in 1% BP, 0.5 mL). The final OD600 of the whole solutions were 0.004 and 0.008 for E. coli and S. aureus cultures, respectively. After 20 h of incubation at 37 °C with shaking, the MIC was determined as the lowest concentration of each compound in which no visible bacterial growth was observed.

[2] = test system: Staphylococcus aureus BHI; assay: MIC, microdilution in culture medium, S. aureus; type: cell-based; conditions: 20 h, 37 °C, average of at least three experiments; for MIC: Staphylococcus aureus, read-out: MIC, Bacteria, S. aureus BHI
Text: as §1, §2, §3

[3] = test system: Saccharomyces cerevisiae BY4741/YEplac195-PDR5; assay: microbe, parasite or virus in culture; type: cell-based; conditions: 24 h; for MIC: Saccharomyces cerevisiae, read-out: MIC, Yeast, BY4741/ PDR5
Text: as §1, §2
(§4) The determination of the MIC for yeast strains was carried out following a similar procedure to that of the polyamines and antifungal reference agents: Serial dilutions of each one in phosphate buffer (20 mM, pH 7.4, 0.5 mL) were prepared and mixed with a suspension of yeast cells (OD600 0.04 in SC-ura 2X (VWR, Atlanta, GA, USA), 0.5 mL). […] Experiments were carried out at least three times in all cases.

[4] = test system: Saccharomyces cerevisiae BY4741/YEplac195; assay: microbe, parasite or virus in culture; type: cell-based; conditions: 24 h, 30 °C, average of at least three experiments; for MIC: Saccharomyces cerevisiae, read-out: MIC, Yeast, BY4741/ YEplac195
Text: as §1, §2, §4

BY4741/PDR5 = assay: Checkerboard titration synergy, BY4741/PDR5; type: cell-based, Saccharomyces cerevisiae; conditions: synergistic when FICI ≤0.5
Experimental: The combined antimicrobial activity of the test compounds with the antibacterial or antifungal control agents was performed under the same conditions used for the MIC determination and following the procedures described by Carton Herrán, Reis de Sá et al. and Zharkova et al.. For each experiment, 16 samples (4 rows × 4 columns) in a total volume of 0.5 mL were prepared in tubes using an array of combinations between the MIC value and 0 μg/mL of the compound to be tested in each row, and between the MIC value and 0 μg/mL of the reference drug in each column. In this way, a variety of mixtures with different concentrations of them alone or in combination was obtained. Briefly, 0.5 mL of a microorganism culture was added to each one of the samples, and after incubation for 24 h with shaking at the appropriate temperature (37 °C or 30 °C), the tubs were visually inspected, and the OD600 was measured. From this information, the fractional inhibitory concentration index (FICI) was calculated according to the formula FIC index = ([A]/[CMI A]) + ([B]/[CMI B]), where [A] and [B] are respective concentrations of tested polyamine and reference drug in their combination effectively inhibiting the growth of bacteria or yeast, and [MIC A] and [MIC B] are the individual MICs of the tested polyamine and reference drug when they are used alone. An interaction is considered synergistic when the FICI value is ≤0.5 [41, 42].
To confirm the data obtained in the checkerboard assay, 30 μL of a ten-fold dilution of the tubes containing concentrations of half of the MIC of each one of the compounds alone (polyamine to be tested and reference drug) and one fourth of the MIC of each one in combination were also spread in LB or SC-ura plates (according to the microorganism considered in each case) and incubated at 37 °C or 30 °C. The visualisation of these plates was performed after 24 or 48 h, respectively. All these experiments were carried out in triplicate.

E. coli = assay: Lytic activity, time-kill (OD600), E. coli; type: cell-based, Escherichia coli; conditions: 5 times the MIC
Experimental: To determine if the compounds showing microbicidal activity induce cell lysis, the procedure described by Fleeman et al. was followed, with the modifications indicated below. The E. coli and S. aureus strains were grown as in the experiments described earlier. The cells corresponding to 1.5 units of OD600 were collected and resuspended in 1% BP after washing in the same medium. They were incubated in a final volume of 1 mL with concentrations 5 times higher than the MIC of the analysed compounds, and OD600 was monitored over time. Other antimicrobial compounds were also used in this study as controls. The experiments were performed in triplicate.

[5] = 298 K, 0.15 mol/dm^3 NaCl, error in last figure in parentheses

Molecule	Stepwise protonation constant (log K), H2L + H ⇄ H3L [1, 5]	Stepwise protonation constant (log K), L + H ⇄ HL [1, 5]	Stepwise protonation constant (log K), LH + H ⇄ H2L [1, 5]	log β (cumulative protonation constant) ([1]; 298 K, 0.15 mol/dm^3 NaCl)	n, average number of positive charges at pH 7.4 [1]	MIC (Escherichia coli JM101)	MIC [2]	MIC [3]	MIC [4]	Synergy with Amphotericin B (BY4741/PDR5)	Synergy with Cycloheximide (BY4741/PDR5)	Lytic activity (OD600 over time) (E. coli)	Stepwise protonation constant (log K), H3L + H ⇄ H4L [1, 5]	Stepwise protonation constant (log K), H4L + H ⇄ H5L [1, 5]	Stepwise protonation constant (log K), H5L + H ⇄ H6L [1, 5]	MIC, Bacteria, E. coli JM101 (Escherichia coli JM101)	MIC, Bacteria, S. aureus BHI [2]	MIC, Yeast, BY4741/ PDR5 ([3]; 30 °C, Pdr5-overexpressing strain)	MIC, Yeast, BY4741/ YEplac195 [4]
c1cc2nc(c1)CNCCN(CCNCc1ccc3c(c1)CCO3)CCNC2 [Compound 8a, 2-(3,6,9-triaza-1(2,6)-pyridinacyclodecaphane-6-yl)-N-((2,3-dihydrobenzofuran-5-yl)methyl)ethan-1-amine]	7.296 (4)	9.943 (3)	8.736 (3)	26.17	2.4	15 µg/mL	100 µg/mL	400 µg/mL	400 µg/mL										
c1cc2nc(c1)CNCCN(CCNCc1ccc3c(c1)OCO3)CCNC2 [Compound 5a, 2-(3,6,9-triaza-1(2,6)-pyridinacyclodecaphane-6-yl)-N-(benzo[d][1,3]dioxol-5-ylmethyl)ethan-1-amine]	7.30 (1)	10.48 (1)	8.78 (1)	26.56	2.4	5 µg/mL	35 µg/mL	60 µg/mL	60 µg/mL	positive results and +	positive results and +	do not have a lytic effect							
N^1-(benzo[d][1,3]dioxol-5-ylmethyl)-N^3-(2-((2-((3-((benzo[d][1,3]dioxol-5-ylmethyl)amino)propyl)amino)ethyl)(2-((3-(((2,3-dihydrobenzofuran-6-yl)methyl)amino)propyl)amino)ethyl)amino)ethyl)propane-1,3-diamine [Compound 4a]	9.12 (1)	10.95 (1)	9.63 (1)	51.60	4.5					positive results and +	positive results and +		8.07 (1)	7.48 (1)	6.35 (2)	5 µg/mL	4 µg/mL	150 µg/mL	150 µg/mL
Oc1ccc(CNCCN2CCNCc3cccc(n3)CNCC2)cc1 [Compound 7a]				35.48	2.4	13 µg/mL	135 µg/mL	295 µg/mL	295 µg/mL										
Oc1ccccc1CNCCN1CCNCc2cccc(n2)CNCC1 [Compound 6a]					1.91	2.5 µg/mL	40 µg/mL	45 µg/mL	45 µg/mL	positive results and +	positive results and +	do not have a lytic effect							
